# From US20200031858A1, “AVERMECTIN DERIVATIVES AS FXR MODULATORS” (Hepagene Therapeutics, Inc., priority 2017, published 2020)
# Target: T1, FXR-LBD (Farnesoid X Receptor) (Homo sapiens, UniProt Q96RI1)
# T1 construct: Add 5 μl of 4×FXR-LBD to 384 well assay plates; purchased
# T1 sequence (Q96RI1 262-486 limits assumed): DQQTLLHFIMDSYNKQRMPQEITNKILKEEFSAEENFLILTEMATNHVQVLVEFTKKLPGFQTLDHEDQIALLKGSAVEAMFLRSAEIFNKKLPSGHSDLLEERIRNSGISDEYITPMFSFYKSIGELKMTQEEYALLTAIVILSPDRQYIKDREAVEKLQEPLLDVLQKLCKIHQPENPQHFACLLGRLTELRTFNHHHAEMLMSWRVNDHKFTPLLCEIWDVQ
# Assay: LanthaScreen TR-FRET Farnesoid X Receptor Coactivator Assay
# Assay type: biochemical
# Details: TR-FRET ratio 520 nm/495 nm; 10 doses, 3-fold serial dilution; GW4064 as positive control
# Protocol: The compounds of the present technology may be assayed using the following procedure and will be shown to have FXR binding activity.
# LanthaScreen™ TR-FRET Farnesoid X Receptor Coactivator Assay
# GW4064 as a positive control
# • 1. All of compounds were 3-fold serial diluted from 10 mM stock for 10 doses in DMSO. • 2. Dilute each 100× agonist serial dilution to 2× using Complete Coregulator buffer G. • 3. Transfer 10 μl of each of the 2× agonist serial dilutions to 384 well assay plates. • 4. Add 5 μl of 4×FXR-LBD to 384 well assay plates. • 5. Add 5 μl of 4× peptide/4× antibody solution to 384 well assay plates. • 6. Incubate at room temperature protected from light. • 7. Read the plate at wavelengths of 520 nm and 495 nm on Envision 2104 plate reader. • 8. Calculate the TR-FRET ratio by dividing the emission signal at 520 nm by the emission signal at 495 nm. • 9. Calculate EC50 by fitting % Activity values and log of compound concentrations to nonlinear regression (dose response−variable slope) with Graphpad 5.0.
row,SMILES,EC50 [µM]
1,CON=C1C(C)=C[C@H]2C(=O)O[C@H]3C[C@@H](C/C=C(\C)[C@@H](O[C@H]4C[C@H](OC)[C@@H](O)[C@H](C)O4)[C@@H](C)/C=C/C=C4\CO[C@H]1[C@@]42O)O[C@@]1(C=C[C@H](C)[C@@H](C2CCCCC2)O1)C3 [Compound 35],0.301 to 1
2,CO[C@H]1C[C@H](O[C@H]2[C@H](C)O[C@@H](O[C@@H]3/C(C)=C/C[C@@H]4C[C@@H](C[C@]5(C=C[C@H](C)[C@@H](C6CCCCC6)O5)O4)OC(=O)[C@@H]4C=C(C)C(=NO)[C@H]5OC/C(=C\C=C\[C@@H]3C)[C@]54O)C[C@@H]2OC)O[C@@H](C)[C@@H]1O [Compound 31],0.01 to 0.1
3,CO[C@H]1C[C@H](O[C@@H]2/C(C)=C/C[C@@H]3C[C@@H](C[C@]4(C=C[C@H](C)[C@@H](C5CCCCC5)O4)O3)OC(=O)[C@@H]3C=C(C)[C@@H](O)[C@H]4OC/C(=C\C=C\[C@@H]2C)[C@]43O)O[C@@H](C)[C@@H]1O [Compound 32],0.101 to 0.3
4,CO[C@H]1C[C@H](O[C@@H]2/C(C)=C/C[C@@H]3C[C@@H](C[C@]4(C=C[C@H](C)[C@@H](C5CCCCC5)O4)O3)OC(=O)[C@@H]3C=C(C)C(=NO)[C@H]4OC/C(=C\C=C\[C@@H]2C)[C@]43O)O[C@@H](C)[C@@H]1O [Compound 33],0.01 to 0.1
